Reference: patent publication US5317103A, “Indole-substituted five-membered heteroaromatic compounds as 5-HT1 agonists” (Merck Sharp & Dohme Limited, priority 1992, dated 1994)

target: T1, 5-HT1 -like receptor (Oryctolagus cuniculus, UniProt P49144); assay: agonist-mediated contraction of the saphenous vein of New Zealand White rabbits; format: cell-based; settings: not given
T1 construct: contraction of the saphenous vein of New Zealand White rabbits; from tissue; host or cells: saphenous vein of New Zealand White rabbits
Description: The activity of test compounds as agonists of the 5-HT1 -like receptor was measured in terms of their ability to mediate contraction of the saphenous vein of New Zealand White rabbits, using the procedure described in Arch. Pharm., 1990, 342, 111. Agonist potencies were calculated as -log10 EC50 (pEC50) values, from plots of percentage 5-HT (1 μm) response against the concentration of the agonist.

T1 sequence (P49144 whole entry): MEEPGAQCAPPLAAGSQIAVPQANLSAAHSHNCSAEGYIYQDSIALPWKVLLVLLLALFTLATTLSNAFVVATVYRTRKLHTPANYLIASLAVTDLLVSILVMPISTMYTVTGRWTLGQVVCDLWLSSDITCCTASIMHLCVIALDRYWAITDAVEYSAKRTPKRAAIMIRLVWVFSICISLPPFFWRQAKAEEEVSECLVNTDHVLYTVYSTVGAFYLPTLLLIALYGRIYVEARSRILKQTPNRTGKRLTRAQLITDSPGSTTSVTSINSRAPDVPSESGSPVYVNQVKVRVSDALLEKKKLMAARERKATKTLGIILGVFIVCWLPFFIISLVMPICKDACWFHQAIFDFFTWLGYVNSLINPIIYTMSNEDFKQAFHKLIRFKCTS

Q: Which EC50 does the source give for `CN(C)CCc1c[nH]c2ccc(-c3nc(CCNS(C)(=O)=O)no3)cc12` [Example 56, N,N-dimethyl-2-[5-(5-(3-(2-methylsulphonylamino)ethyl-1,2,4-oxadiazol)yl)-1H-indol-3-yl]ethylamine] here?
A: ≤ 10 µM

Q: Which EC50 does the source give for `CN(C)CCc1c[nH]c2ccc(Cc3nc(N)no3)cc12` [Example 30, N,N-Dimethyl-2-[5-[5-(3-Amino-1,2,4-oxadiazol)ylmethyl]-1H-indol-3-yl]ethylamine] here?
A: ≤ 10 µM

Q: How did the EC50 turn out when `CN(C)CCc1c[nH]c2ccc(-c3nc(N)no3)cc12` [Example 49, N,N-Dimethyl-2-[5-(5-(3-amino-1,2,4-oxadiazol)yl)-1H-indol-3yl]ethylamine] was run?
A: ≤ 10 µM

Q: How did the EC50 turn out when `CN(C)CCc1c[nH]c2ccc(Cc3nc(CNC(=O)c4ccccc4)no3)cc12` [Example 88, N,N-Dimethyl-2-[5-(5-(3-phenylcarboxamidomethyl-1,2,4-oxadiazol)ylmethyl)-1H-indol-3-yl]ethylamine] was run?
A: ≤ 10 µM

Q: With `NCCc1c[nH]c2ccc(Cc3nc(Cc4ccccc4)no3)cc12` [Example 4] as the molecule, how does the EC50 read?
A: ≤ 10 µM

Q: For `CN(C)CCc1c[nH]c2ccc(-c3nc(CCNC(=O)OC(C)(C)C)no3)cc12` [Example 53, N,N-dimethyl-2-[5-(5-(3-(2-t-butyloxycarbonylamino)ethyl-1,2,4-oxadiazol)yl)-1H-indol-3-yl]ethylamine], which EC50 is on record?
A: ≤ 10 µM

Q: With `NCCc1c[nH]c2ccc(-c3nc(Cc4ccc(NC(N)=O)cc4)no3)cc12` [Example 44, 2-[5-(5-(3-(4-Carbamoylaminobenzyl)-1,2,4-oxadiazol)yl)-1H-indol-3-yl]ethylamine] as the molecule, how does the EC50 read?
A: ≤ 10 µM

Q: With `NCCc1c[nH]c2ccc(-c3nc(N)no3)cc12` [Example 45, 2-[5-(5-(3-Amino-1,2,4-oxadiazol)-yl)-1H-indol-3-yl]ethylamine] as the molecule, how does the EC50 read?
A: ≤ 10 µM

Q: How did the EC50 turn out when `NCCc1c[nH]c2ccc(Cc3nc(N)no3)cc12` [Example 6] was run?
A: ≤ 10 µM

Q: For `CC(=O)Nc1ccc(Cc2noc(-c3ccc4[nH]cc(CCN(C)C)c4c3)n2)cc1` [Example 27, N,N-Dimethyl-2-[5-[5-(3-(4-Acetylaminobenzyl)-1,2,4-oxadiazol)yl]-1H-indol-3-yl]ethylamine], which EC50 is on record?
A: ≤ 10 µM

Q: Which EC50 does the source give for `NCCc1c[nH]c2ccc(-c3nc(Cc4ccccc4)no3)cc12` [Example 1, 2-[5-(5-(3-Benzyl-1,2,4-oxadiazol)-yl)-1H-indol-3-yl]ethylamine] here?
A: ≤ 10 µM

Q: How did the EC50 turn out when `CN(C)CCc1c[nH]c2ccc(-c3nc(Cc4ccc(NC(N)=O)cc4)no3)cc12` [Example 52, N,N-Dimethyl-2[5-(5-(3-(4-carbamoylaminobenzyl)-1,2,4-oxadiazol)yl)-1H-indol-3-yl]ethylamine] was run?
A: ≤ 10 µM

Q: Which EC50 does the source give for `CN(C)CCc1c[nH]c2ccc(Cc3nc(N4CCN(C(=O)OC(C)(C)C)CC4)no3)cc12` [Example 93, N,N-Dimethyl-2-[5-(5-(3-(4-^t-butyloxycarbonyl)piperazine-1,4-yl-1,2,4-oxadiazol)ylmethyl)-1H-indol-3-yl]ethylamine] here?
A: ≤ 10 µM

Q: `CNS(=O)(=O)c1ccc(Cc2noc(Cc3ccc4[nH]cc(CCN(C)C)c4c3)n2)cc1` [Example 65, N,N-Dimethyl-2-[5-(5-(3-(4-methylaminosulphonylbenzyl)-1,2,4-oxadiazol)ylmethyl)-1H-indol-3-yl]ethylamine] was tested. Which EC50 did it give?
A: ≤ 10 µM

same assay, conditions: rabbit saphenous vein contraction; from plots of percentage 5-HT (1 μm) response against agonist concentration

Q: With `CN(C)CCc1c[nH]c2ccc(-c3nc(Cc4ccc(NS(C)(=O)=O)cc4)no3)cc12` [Example 28, N,N-Dimethyl-2-[5-[5-(3-(4-Methylsulphonylaminobenzyl)-1,2,4-oxadiazol)yl]-1H-indol-3-yl]ethyl amine] as the molecule, how does the “agonist potency -log10 EC50 (pEC50)” value read?
A: not less than 5.0

Q: `CN(C)CCc1c[nH]c2ccc(CCc3nc(N)no3)cc12` [Example 61, N,N-Dimethyl-2-[5-(2-(5-(3-amino-1,2,4-oxadiazol)yl)ethyl)-1H-indol-3-yl]ethylamine] was tested. Which “agonist potency -log10 EC50 (pEC50)” value did it give?
A: not less than 5.0

same assay, conditions: rabbit saphenous vein contraction; from plots of percentage 5-HT (1 μm) response against agonist concentration; read-out: agonist potency -log10 EC50 (pEC50) (converted)

Q: For `CN1CCC(c2c[nH]c3ccc(Cc4nc(N)no4)cc23)CC1` [Example 110, 4-[5-(3-Amino-1,2,4-oxadiazol-5-ylmethyl)-1H-indol-3-yl]N-methylpiperidine], which EC50 is on record?
A: ≤ 10 µM
